Results on one molecule are retold here after patent publication US20210008220A1, “PHARMACEUTICAL COMPOSITIONS CONTAINING POLYROTAXANES” (UNIVERSITY OF GEORGIA RESEARCH FOUNDATION, INC., priority 2018, published 2021).

For data set [1], the system named is NIO mice (Balb/C). Briefly: acute toxicity in normal NIO mice. To be noted: single-dose 300 mg/kg DFO equiv or 100 mg/kg DFO equiv every 2 days x6, tail-vein, 14 days. The class given is in vivo, mouse. How it is done:
Normal NIO mice (Balb/C, Female, 6 weeks old), randomly divided into 7 groups (n=6), were treated with saline, single-dose (300 mg/kg DFO equiv) or multiple-dose (100 mg/kg DFO equiv every 2 days, six doses total) regimens of DFO, rPR-DFO, and rPR-OH (same concentrations as rPR-DFO based on w/v) via tail-vein injections (10 μL/g). Mice were monitored for 14 days for signs of acute toxicity based on body weight loss, changes in appetite, and changes in behavior such as altered gait and lethargy. The body weights of the mice were recorded every other day over the course of the study. Mice were euthanized by CO2 overdose on the 14th day. The lungs, heart, spleen, kidneys, brain and liver of animals were subsequently harvested, rinsed with fresh PBS, blotted dry with Whatman filter paper, and then weighed (note that organ weight is reported as mg of total organ weight per g of animal bw, mg/g). […] Mice also behaved normally and no changes in appetite were noted.

Data set [2] deals with NIO J774A.1 macrophage cells. Description: in vitro cytotoxicity, resazurin assay, NIO cells. The settings on record: Mus musculus, J774.A1, 48 h, rPR-DFO at equivalent DFO concentrations, read-out: concentration inhibiting 50% cell viability. Type of data set: cell-based. (Resazurin is reduced to fluorescent resorufin, in cell work by metabolically active cells.)
Description: Briefly, both NIO and IO J774A.1 macrophage cells were seeded in 96-well plates at a density of 3,000 cells/well, cultured at 37° C., 5% CO2 and 100% humidity with DMEM complete medium for 24 h. Cells were then treated with 1 mM free DFO or rPR-DFO at equivalent DFO concentrations (prepared by 1:3 serial dilutions) for 48 h; equivalent rPR-OH based on w/v to rPR-DFO concentrations was also investigated. Next, the substrate resazurin was dissolved in cell culture medium at a concentration of 44 μM, added to each well (100 μl), and incubated at 37° C. for 4 h. The fluorescence change was monitored by exciting at 560 nm and measuring emission at 590 nm with a SpectraMax Gemini EM microplate reader. Readings from wells without cells were used as Eblank, and the readings from control cells without treatment (Econtrol) represented 100% cell viability. The viability of treated cells was calculated by the following equation:
For data set [3] the following is noted: in humans; cited from earlier work.

Regarding `CC(=O)N(O)CCCCCNC(=O)CCC(=O)N(O)CCCCCNC(=O)CCC(=O)N(O)CCCCCN` [DFO, Deferoxamine], the “acute toxicity based on body weights and organ weights” value in data set [1] is “no apparent evidence of acute toxicity”. In addition, the IC50 in data set [2] is around 10 µM. Further, the “half-life (blood circulation)” value in data set [3] is “ca. 20 min”.
